Assays:
Type in all cases: in vivo
[1] = system: barnyardgrass (Echinochloa crus-galli); test: Test A preemergence; conditions: Echinochloa crus-galli, pre-emergence, 240 h; for pest or weed control at 125 g/ha: 125 g ai/ha, preemergence, 0 to 100 scale where 0 is no effect and 100 is complete control, read-out: Barnyardgrass plant response rating; for pest or weed control at 500 g/ha: 500 g ai/ha, Preemergence, visual injury vs untreated controls after approximately 10 d, read-out: Barnyardgrass plant response rating (0 to 100 scale where 0 is no effect and 100 is complete control)
How it was run: (§1)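 In a loam soil and sand blend, planted seeds got a preemergence directed soil spray, and young plants at the one- to two-leaf stage, 2–10 cm high, got a postemergence application; ~10 d greenhouse hold; injury rated visually, 0 = none, 100 = complete control.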

[2] = system: pigweed (Amaranthus retroflexus); test: Test A preemergence; conditions: Amaranthus retroflexus, pre-emergence, 240 h; for pest or weed control at 125 g/ha: 125 g ai/ha, preemergence, 0 to 100 scale where 0 is no effect and 100 is complete control, read-out: Pigweed plant response rating; for pest or weed control at 500 g/ha: 500 g ai/ha, Preemergence, visual injury vs untreated controls after approximately 10 d, read-out: Pigweed plant response rating (0 to 100 scale where 0 is no effect and 100 is complete control)
[3] = system: ragweed (common ragweed, Ambrosia elatior); test: Test A preemergence; conditions: Ambrosia artemisiifolia, pre-emergence, 240 h; for pest or weed control at 125 g/ha: 125 g ai/ha, preemergence, 0 to 100 scale where 0 is no effect and 100 is complete control, read-out: Ragweed plant response rating; for pest or weed control at 500 g/ha: 500 g ai/ha, Preemergence, visual injury vs untreated controls after approximately 10 d, read-out: Ragweed plant response rating (0 to 100 scale where 0 is no effect and 100 is complete control)
How it was run: as §1

[4] = system: Kochia (Kochia scoparia); test: Test A preemergence; conditions: Bassia scoparia, pre-emergence, 240 h; for pest or weed control at 125 g/ha: 125 g ai/ha, preemergence, 0 to 100 scale where 0 is no effect and 100 is complete control, read-out: Kochia plant response rating; for pest or weed control at 500 g/ha: 500 g ai/ha, Preemergence, visual injury vs untreated controls after approximately 10 d, read-out: Kochia plant response rating (0 to 100 scale where 0 is no effect and 100 is complete control)
How it was run: as §1

[5] = system: ryegrass, Italian (Italian ryegrass, Lolium multiflorum); test: Test A preemergence; conditions: Lolium multiflorum, pre-emergence, 240 h; for pest or weed control at 125 g/ha: 125 g ai/ha, preemergence, 0 to 100 scale where 0 is no effect and 100 is complete control, read-out: Ryegrass, Italian plant response rating; for pest or weed control at 500 g/ha: 500 g ai/ha, Preemergence, visual injury vs untreated controls after approximately 10 d, read-out: Ryegrass, Italian plant response rating (0 to 100 scale where 0 is no effect and 100 is complete control)
How it was run: as §1

[6] = system: corn (Zea mays); test: Test A postemergence; conditions: Zea mays, post-emergence, 240 h, 125 g ai/ha, postemergence, visual injury rating after approximately 10 d; read-out: Corn plant response rating (0 to 100 scale, 0 no effect, 100 complete control)
How it was run: as §1

[7] = system: barnyardgrass (Echinochloa crus-galli); test: Test A postemergence; conditions: Echinochloa crus-galli, post-emergence, 240 h, 125 g ai/ha, postemergence, visual injury rating after approximately 10 d; read-out: Barnyardgrass plant response rating (0 to 100 scale, 0 no effect, 100 complete control)
How it was run: as §1

[8] = system: pigweed (Amaranthus retroflexus); test: Test A postemergence; conditions: Amaranthus retroflexus, post-emergence, 240 h, 125 g ai/ha, postemergence, visual injury rating after approximately 10 d; read-out: Pigweed plant response rating (0 to 100 scale, 0 no effect, 100 complete control)
How it was run: as §1

[9] = system: ragweed (common ragweed, Ambrosia elatior); test: Test A postemergence; conditions: Ambrosia artemisiifolia, post-emergence, 240 h, 125 g ai/ha, postemergence, visual injury rating after approximately 10 d; read-out: Ragweed plant response rating (0 to 100 scale, 0 no effect, 100 complete control)
How it was run: as §1

[10] = system: Galium (catchweed bedstraw, Galium aparine); test: Test A postemergence; conditions: Galium, post-emergence, 240 h, 125 g ai/ha, postemergence, visual injury rating after approximately 10 d; read-out: Galium plant response rating (0 to 100 scale, 0 no effect, 100 complete control)
How it was run: as §1

[11] = system: Kochia (Kochia scoparia); test: Test A postemergence; conditions: Bassia scoparia, post-emergence, 240 h, 125 g ai/ha, postemergence, visual injury rating after approximately 10 d; read-out: Kochia plant response rating (0 to 100 scale, 0 no effect, 100 complete control)
How it was run: as §1

[12] = system: blackgrass (Alopecurus myosuroides); test: Test A postemergence; conditions: Alopecurus myosuroides, post-emergence, 240 h, 125 g ai/ha, postemergence, visual injury rating after approximately 10 d; read-out: Blackgrass plant response rating (0 to 100 scale, 0 no effect, 100 complete control)
How it was run: as §1

[13] = system: giant foxtail (Setaria faberii); test: Test A postemergence; conditions: Setaria faberi, post-emergence, 240 h, 125 g ai/ha, postemergence, visual injury rating after approximately 10 d; read-out: Foxtail, Giant plant response rating (0 to 100 scale, 0 no effect, 100 complete control)
How it was run: as §1

[14] = system: ryegrass, Italian (Italian ryegrass, Lolium multiflorum); test: Test A postemergence; conditions: Lolium multiflorum, post-emergence, 240 h, 125 g ai/ha, postemergence, visual injury rating after approximately 10 d; read-out: Ryegrass, Italian plant response rating (0 to 100 scale, 0 no effect, 100 complete control)
How it was run: as §1

[15] = system: wheat (Triticum aestivum); test: Test A postemergence; conditions: Triticum aestivum, post-emergence, 240 h, 125 g ai/ha, postemergence, visual injury rating after approximately 10 d; read-out: Wheat plant response rating (0 to 100 scale, 0 no effect, 100 complete control)
How it was run: as §1

SMILES | pest or weed control at 125 g/ha [1] [%] | pest or weed control at 500 g/ha [1] [%] | pest or weed control at 125 g/ha [2] [%] | pest or weed control at 500 g/ha [2] [%] | pest or weed control at 125 g/ha [3] [%] | pest or weed control at 500 g/ha [3] [%] | pest or weed control at 125 g/ha [4] [%] | pest or weed control at 500 g/ha [4] [%] | pest or weed control at 125 g/ha [5] [%] | pest or weed control at 500 g/ha [5] [%] | plant injury at 125 g/ha [6] [%] | pest or weed control at 125 g/ha [7] [%] | pest or weed control at 125 g/ha [8] [%] | pest or weed control at 125 g/ha [9] [%] | pest or weed control at 125 g/ha [10] [%] | pest or weed control at 125 g/ha [11] [%] | pest or weed control at 125 g/ha [12] [%] | pest or weed control at 125 g/ha [13] [%] | pest or weed control at 125 g/ha [14] [%] | plant injury at 125 g/ha [15] [%]
Cc1c(F)ccc([C@H]2CNC(=O)[C@@H]2C(=O)Nc2ccc(F)c(F)c2F)c1F [Compound 830] | 90 | 90 | 20 | 40 | 0 | 20 | 70 | 90 | 0 | 30 | 0 | 90 | 0 | 0 | 30 | 30 | 20 | 70 | 20 | 0
CN1C[C@H](c2cccc(OC(F)(F)C(F)F)c2)[C@@H](C(=O)Nc2ccccc2S(C)(=O)=O)C1=O [Compound 864] | 90 | 90 | 90 | 90 | 20 | 50 | 60 | 80 | 0 | 50 | 60 | 90 | 20 | 0 | 20 | 0 | 50 | 70 | 50 | 50

From patent US12077503B2, “Substituted cyclic amides and their use as herbicides” (FMC CORPORATION, priority 2015, dated 2024)
